Where two headings read alike, the source gives them in different places.
Columns and labels:
[1] = Clinical pharmacokinetic data converted to in vitro concentrations; conditions: human, in vivo
Text: Given the different potencies of the JAK inhibitors and different pharmacokinetic properties for each drug, it was sought to test each drug at a relevant range of physiological concentrations based on clinical dosing and reported pharmacokinetic data from repeat dose studies. Reported Cmax values in patient sera were converted to in vitro concentrations and adjusted for reported plasma protein binding.

[2] = test system: phospho-STAT-1, -3 and -5 in CD4, CD8 T cells and monocytes (CAR T product, PBMCs); experiment: Intracellular phospho-STAT-1, -3, -5 by flow cytometry in immune cell subsets of CAR T product and PBMCs; type: cell-based, human; conditions: for pSTAT-5 inhibition: GM-CSF stimulated PBMC
Method: (§1) Further experiments were performed to look at impacts of JAK inhibitors on STAT phosphorylation in various immune cell subsets.

[3] = test system: NALM6.GFP.LUC.CD19 target cells; experiment: Serial killing assay of CAR-T, percent cytotoxicity by luciferase detection; conditions: in vitro at clinically relevant dose levels
[4] = test system: CAR-T cells; experiment: CAR-T cell expansion assay (KIP-1 or CD3/CD28 stimulation); conditions: for % viability: CD3/CD28
[5] = test system: CD19 CAR T cells; experiment: CAR T cell cytokine production (Luminex) under CD19 K562, KIP-1 or CD2/3/28 stimulation; conditions: for IC50: Homo sapiens, T-cell
Method: Cryopreserved healthy donor CLP CD19 CAR T cells were thawed and rested overnight in 100 U/ml of IL-2 at 1×10^6/ml. 2.5×10^5 CD19 CART cells were plated in 96-well RB plate wells in a total volume of 200 μl of R10 culture media. […] CD19 CART cell cytokine production was allowed to proceed through 72 hours in the presence of stimulator and JAKi or steroid. Following 72 h of culture, 100 μl of the cell supernatant of each well were harvested and stored at −80° C. for later Luminex/Bioplex-200 cytokine analysis. Briefly, stored supernatants were thawed and 50 μl of the sample was assayed for cytokines using a ThermoFisher Procarta Plex 19-plex human cytokine assay kit (ThermoFisher, Carlsbad, CA) according to kit manufacturer's instructions and detected using a BioRad Bioplex-200 instrument. The data points generated from the luminex cytokine assay were transferred to a GraphPad PRISM IC50 dose-response curve analysis to generate IC50 or potency values for the JAKi's and steroids tested.

[6] = test system: phospho-STAT-1, -3 and -5 in purified CD14+ monocytes; experiment: Intracellular phospho-STAT-1, -3, -5 by BD PhosphoFlow in purified monocytes; type: cell-based, human
Method: as §1

[7] = cited from earlier work
[8] = test system: NALM6.GFP.LUC.CD19 target cells; experiment: Serial killing assay; type: cell-based, human
Method: CD19 CAR-T cells were thawed in RPMI media supplemented with HEPES, Penicillin/Streptomycin/L-Glutamine and 10% FBS and rested overnight. The following day, drugs were serially diluted and prepared in 96-well plates. Rested T cells were counted and normalized so that 25,000 or 8,333 T cells were plated with 25,000 NALM6.GFP.LUC.CD19 target cells (1:1 or 1:3 Effector:Target ratio) in the prepared 96-well plates. At 16 hour post-incubation and every 3-4 days, T cell killing of targets was measured via luciferase detection. D-luciferin substrate was added to the co-culture wells at a final concentration of 0.14 mg/mL and plates were incubated at 37° C. in the dark for 10 minutes. Luminescent signal was read immediately after in a VarioSkan™ LUX microplate reader. T cell-mediated cytotoxicity was calculated as follows: % Cytotoxicity=[1−luciferase signal of (sample of interest/target alone control)]*100. Afterwards, co-cultures were stained with LIVE/DEAD and antibodies against CD4, CD8 and KIP-1 and then washed. Cells were then analyzed and quantified via the Attune NxT flow cytometer. T cells were then repeatedly stimulated with fresh 25,000 target cells, and this process was repeated every 3-4 days.

[9] = purified CD14+ monocytes, CAR T cell-derived supernatant, 30 min
[10] = purified CD14+ monocytes, rh-GM-CSF-induced
[11] = purified CD14+ monocytes, rhIFNg-induced
[12] = purified CD14+ monocytes, rhIL6-induced
[13] = purified monocytes, CAR T derived cytokines/supernatant stimulation, 30 min
[14] = E:T ratio 1:3, all doses tested

O=C(Nc1nc2cccc(-c3ccc(CN4CCS(=O)(=O)CC4)cc3)n2n1)C1CC1 [filgotinib]
PPB adj. in Vitro concentration [1]: 1.28 µM
clinically relevant dose level (in vitro concentration) [1]: ~1 µM
inhibitory activity of each p-STAT, CD4 versus CD8 T cells ([2]; CAR T product): stronger inhibitory activity (magnitudes) of each p-STAT in CD4 T cells compared to CD8 T cells
Primary Cell IL-6 pSTAT1 signaling (% inhibition) ([2]; CD4 CART cells): 45%
Primary Cell IL-6 pSTAT3 signaling (% inhibition) ([2]; CD4 CART cells): 50%
Primary Cell IL-6 pSTAT5 signaling (% inhibition) ([2]; CD4 CART cells): 59%
Primary Cell IL-6 pSTAT1 signaling (% inhibition) ([2]; CD8 CART cells): 17%
Primary Cell IL-6 pSTAT3 signaling (% inhibition) ([2]; CD8 CART cells): 38%
Primary Cell IL-6 pSTAT5 signaling (% inhibition) ([2]; CD8 CART cells): 50%
pSTAT-5 inhibition ([2]; CD3+ T cells): 40%
pSTAT-5 inhibition ([2]; CD14+ monocytes): 28%
effect on phosphorylated-STAT-1, -STAT-3 and -STAT5 levels ([2]; IL-6 stimulation): reduction of phosphorylated-STAT-1, -STAT-3 and -STAT5 levels
Primary cell GM-CSF-pSTAT5, inhibition ([2]; Monocytes within bulk PBMCs): 28%
Primary Cell IL-6 pSTAT1 signaling (% inhibition) ([2]; PBMC CD4 T cells): 67%
Primary Cell IL-6 pSTAT3 signaling (% inhibition) ([2]; PBMC CD4 T cells): 52%
Primary Cell IL-6 pSTAT5 signaling (% inhibition) ([2]; PBMC CD4 T cells): 83%
Primary Cell IL-6 pSTAT1 signaling (% inhibition) ([2]; PBMC CD8 T cells): 26%
Primary Cell IL-6 pSTAT3 signaling (% inhibition) ([2]; PBMC CD8 T cells): 37%
Primary Cell IL-6 pSTAT5 signaling (% inhibition) ([2]; PBMC CD8 T cells): 49%
Primary Cell IL-6 pSTAT1 signaling (% inhibition) ([2]; PBMC Monocytes): 50%
Primary Cell IL-6 pSTAT3 signaling (% inhibition) ([2]; PBMC Monocytes): 74%
Primary Cell IL-6 pSTAT5 signaling (% inhibition) ([2]; PBMC Monocytes): 34%
inhibitory activity of each p-STAT, CD4 versus CD8 T cells ([2]; T cells from PBMCs): stronger inhibitory activity (magnitudes) of each p-STAT in CD4 T cells compared to CD8 T cells
Primary cell GM-CSF-pSTAT5, inhibition ([2]; T cells within bulk PBMCs): 40%
effect on CAR T cells in cell killing, serial killing and T cell expansion assays [3]: not accompanied by a detrimental effect on CAR T cells
% viability ([4]; dose 500 nM, day 4): 58.7%
% viability ([4]; dose 500 nM, day 8): 65.7%
% viability ([4]; dose 500 nM, day 12): 84.5%
% viability ([4]; dose 1000 nM, day 4): 73.1%
% viability ([4]; dose 1000 nM, day 8): 70.9%
% viability ([4]; dose 1000 nM, day 12): 81.6%
effect on T cell expansion ([4]; at the doses tested (Table 40)): little to no effect
suppression of cytokine production from CAR T cells (breadth and magnitude) [5]: less effective in the breadth of cytokines suppressed and its potency to suppress particular cytokines
Suppression of cytokine production, GMCSF (IC50) ([5]; CD3/CD28 stimulation, 72 h): Suppress
IC50 ([5]; 72 h, read-out: Suppression of cytokine production, GMCSF (IC50), K562-CD19 stimulation, 72 h): > 10000 nM
IC50 ([5]; 72 h, read-out: Suppression of cytokine production, GMCSF (IC50), KIP-1 stimulation, 72 h): 6440 nM
IC50 ([5]; 72 h, read-out: Suppression of cytokine production, GzB (IC50), CD3/CD28 stimulation, 72 h): 7650 nM
IC50 ([5]; 72 h, read-out: Suppression of cytokine production, GzB (IC50), K562-CD19 stimulation, 72 h): > 10000 nM
IC50 ([5]; 72 h, read-out: Suppression of cytokine production, GzB (IC50), KIP-1 stimulation, 72 h): > 10000 nM
IC50 ([5]; 72 h, read-out: Suppression of cytokine production, IFNg (IC50), CD3/CD28 stimulation, 72 h): > 10000 nM
IC50 ([5]; 72 h, read-out: Suppression of cytokine production, IFNg (IC50), K562-CD19 stimulation, 72 h): > 10000 nM
IC50 ([5]; 72 h, read-out: Suppression of cytokine production, IFNg (IC50), KIP-1 stimulation, 72 h): > 10000 nM
IC50 ([5]; 72 h, read-out: Suppression of cytokine production, IL-2Ra (IC50), CD3/CD28 stimulation, 72 h): 1890 nM
IC50 ([5]; 72 h, read-out: Suppression of cytokine production, IL-2Ra (IC50), K562-CD19 stimulation, 72 h): 4820 nM
IC50 ([5]; 72 h, read-out: Suppression of cytokine production, IL-2Ra (IC50), KIP-1 stimulation, 72 h): 277 nM
IC50 ([5]; 72 h, read-out: Suppression of cytokine production, IL-6 (IC50), CD3/CD28 stimulation, 72 h): 1710 nM
IC50 ([5]; 72 h, read-out: Suppression of cytokine production, IL-6 (IC50), KIP-1 stimulation, 72 h): 716 nM
IC50 ([5]; 72 h, read-out: Suppression of cytokine production, IL-8 (IC50), CD3/CD28 stimulation, 72 h): > 10000 nM
IC50 ([5]; 72 h, read-out: Suppression of cytokine production, IL-8 (IC50), K562-CD19 stimulation, 72 h): 543 nM
IC50 ([5]; 72 h, read-out: Suppression of cytokine production, IL-8 (IC50), KIP-1 stimulation, 72 h): 564 nM
IC50 ([5]; 72 h, read-out: Suppression of cytokine production, IL-10 (IC50), CD3/CD28 stimulation, 72 h): 2010 nM
IC50 ([5]; 72 h, read-out: Suppression of cytokine production, IL-10 (IC50), K562-CD19 stimulation, 72 h): 397 nM
IC50 ([5]; 72 h, read-out: Suppression of cytokine production, IL-10 (IC50), KIP-1 stimulation, 72 h): 191 nM
IC50 ([5]; 72 h, read-out: Suppression of cytokine production, MCP-1 (IC50), CD3/CD28 stimulation, 72 h): 563 nM
IC50 ([5]; 72 h, read-out: Suppression of cytokine production, MCP-1 (IC50), K562-CD19 stimulation, 72 h): 858 nM
IC50 ([5]; 72 h, read-out: Suppression of cytokine production, MCP-1 (IC50), KIP-1 stimulation, 72 h): 559 nM
IC50 ([5]; 72 h, read-out: Suppression of cytokine production, MIG (IC50), CD3/CD28 stimulation, 72 h): > 10000 nM
IC50 ([5]; 72 h, read-out: Suppression of cytokine production, MIG (IC50), K562-CD19 stimulation, 72 h): 1570 nM
IC50 ([5]; 72 h, read-out: Suppression of cytokine production, MIG (IC50), KIP-1 stimulation, 72 h): 1380 nM
IC50 ([5]; 72 h, read-out: Suppression of cytokine production, MIP-1a (IC50), CD3/CD28 stimulation, 72 h): > 10000 nM
IC50 ([5]; 72 h, read-out: Suppression of cytokine production, MIP-1a (IC50), K562-CD19 stimulation, 72 h): > 10000 nM
IC50 ([5]; 72 h, read-out: Suppression of cytokine production, MIP-1a (IC50), KIP-1 stimulation, 72 h): > 10000 nM
IC50 ([5]; 72 h, read-out: Suppression of cytokine production, MIP-1b (IC50), CD3/CD28 stimulation, 72 h): > 10000 nM
IC50 ([5]; 72 h, read-out: Suppression of cytokine production, MIP-1b (IC50), K562-CD19 stimulation, 72 h): 9820 nM
IC50 ([5]; 72 h, read-out: Suppression of cytokine production, MIP-1b (IC50), KIP-1 stimulation, 72 h): > 10000 nM
IC50 ([5]; 72 h, read-out: Suppression of cytokine production, Perforin (IC50), CD3/CD28 stimulation, 72 h): 5460 nM
IC50 ([5]; 72 h, read-out: Suppression of cytokine production, Perforin (IC50), K562-CD19 stimulation, 72 h): > 10000 nM
IC50 ([5]; 72 h, read-out: Suppression of cytokine production, Perforin (IC50), KIP-1 stimulation, 72 h): 2110 nM
IC50 ([5]; 72 h, read-out: Suppression of cytokine production, TNFa (IC50), CD3/CD28 stimulation, 72 h): 793 nM
IC50 ([5]; 72 h, read-out: Suppression of cytokine production, TNFa (IC50), K562-CD19 stimulation, 72 h): 7230 nM
IC50 ([5]; 72 h, read-out: Suppression of cytokine production, TNFa (IC50), KIP-1 stimulation, 72 h): 2240 nM
Suppression of cytokine production, IL-6 (IC50) ([5]; K562-CD19 stimulation, 72 h): Suppress
IFN-gamma induction of pSTAT-1, 3 and 5 [6]: strongly suppressed
pSTAT-5 induction by GM-CSF ([6]; purified CD14+ monocytes): not inhibited
Monocyte-specific pSTAT1 signaling, inhibition [6, 9]: 91%
Monocyte-specific pSTAT3 signaling, inhibition [6, 9]: 100%
Monocyte-specific pSTAT5 signaling, inhibition [6, 9]: 0%
Monocyte-specific pSTAT1 signaling, inhibition [6, 10]: na/ni
Monocyte-specific pSTAT3 signaling, inhibition [6, 10]: na/ni
Monocyte-specific pSTAT5 signaling, inhibition [6, 10]: 0%
Monocyte-specific pSTAT1 signaling, inhibition [6, 11]: 100%
Monocyte-specific pSTAT3 signaling, inhibition [6, 11]: 100%
Monocyte-specific pSTAT5 signaling, inhibition [6, 11]: 98%
Monocyte-specific pSTAT1 signaling, inhibition [6, 12]: na/ni
Monocyte-specific pSTAT3 signaling, inhibition [6, 12]: 51%
Monocyte-specific pSTAT5 signaling, inhibition [6, 12]: na/ni
pSTAT-3 inhibition ([6]; purified monocytes stimulated by IL-6): 51%
pSTAT1 inhibition [6, 13]: 91%
pSTAT3 inhibition [6, 13]: 100%
Cmax ([7]; clinical dosing, patient sera, repeat dose studies): 1200 ng/mL
Protein binding ([7]; plasma protein binding, reported): ~42%
T-cell counts ([8]; E:T ratio 1:1): increased T-cell counts in a dose-dependent manner
serial killing ([8]; E:T ratio 1:1): enhanced serial killing
T-cell counts [8, 14]: no negative impacts were observed
serial killing [8, 14]: no negative impacts

Source: US12252701B2, “Chimeric antigen receptor T cell therapy” (KITE PHARMA, INC., priority 2020, dated 2025)
